Data: patent US7704995B2 (Exelixis, Inc., priority 2003, dated 2010)

The molecules below were run against T1, Chk1 (Homo sapiens, UniProt O14757) (assay: Chk1 kinase assay: incorporation of γ-33P ATP into immobilized myelin basic protein). Conditions: Table 11, Chk1 only; class symbols A-D; read-out: Chk1 IC50.
T1 construct: purchased Upstate Biotechnology
T1 sequence (O14757 1-476): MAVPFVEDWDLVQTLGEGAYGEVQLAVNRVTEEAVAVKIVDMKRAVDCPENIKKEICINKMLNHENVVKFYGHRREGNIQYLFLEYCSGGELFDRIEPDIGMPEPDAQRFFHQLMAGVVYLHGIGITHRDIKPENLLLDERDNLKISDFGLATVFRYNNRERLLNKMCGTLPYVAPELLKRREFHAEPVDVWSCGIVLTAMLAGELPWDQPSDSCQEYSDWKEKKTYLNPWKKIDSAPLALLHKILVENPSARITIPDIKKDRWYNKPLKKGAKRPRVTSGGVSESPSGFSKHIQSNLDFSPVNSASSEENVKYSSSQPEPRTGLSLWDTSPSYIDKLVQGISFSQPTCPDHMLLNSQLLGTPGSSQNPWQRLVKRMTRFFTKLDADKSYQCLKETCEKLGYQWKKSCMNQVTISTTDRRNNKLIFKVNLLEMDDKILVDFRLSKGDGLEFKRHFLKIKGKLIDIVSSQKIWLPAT
Type: biochemical
Summary of the method: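 Chk1 (10 nM) or Chk2 (20 nM) phosphorylated plate-immobilized myelin basic protein for 1 h at room temperature in Hepes pH 7.6 buffer with MgCl2, DTT, 1% DMSO, γ-33P ATP plus 10 μM (Chk1) or 30 μM (Chk2) unlabeled ATP. Bound radioactivity counted by scintillation; IC50 determined, Ki derivable from IC50.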

Row | IC50 [µM] | Structure (SMILES)
1 | < 0.05 | Nc1ncc(-c2cccc(C(=O)NCc3ccc(Cl)c(C(F)(F)F)c3)c2)nc1C(=O)N[C@H]1CCCNC1 [Example 1005, 3-amino-6-{3-[({[4-chloro-3-(trifluoromethyl)phenyl]methyl}amino)carbonyl]phenyl}-N-[(3S)-piperidin-3-yl]pyrazine-2-carboxamide]
2 | < 0.05 | Nc1ncc(-c2cccc(C(=O)NCc3cc(Cl)ccc3Cl)c2)nc1C(=O)N[C@H]1CCCNC1 [Example 1015, 3-amino-6-[3-({[(2,5-dichlorophenyl)methyl]amino}carbonyl)phenyl]-N-[(3S)-piperidin-3-yl]pyrazine-2-carboxamide]
3 | < 0.05 | Nc1ncc(-c2cccc(C(=O)NCCc3ccc(F)cc3)c2)nc1C(=O)N[C@H]1CCCNC1 [Example 925, 3-amino-6-[3-({[2-(4-fluorophenyl)ethyl]amino}carbonyl)phenyl]-N-[(3S)-piperidin-3-yl]pyrazine-2-carboxamide]
4 | < 0.05 | COc1ccc(CNC(=O)c2cccc(-c3cnc(N)c(C(=O)N[C@H]4CCCNC4)n3)c2)cc1OC [Example 1042, 3-amino-6-{3-[({[3,4-bis(methyloxy)phenyl]methyl}amino)carbonyl]phenyl}-N-[(3S)-piperidin-3-yl]pyrazine-2-carboxamide]

Same assay, conditions: Table 11; Chk1 only; read-out: Chk1 IC50

Row | IC50 [µM] | Structure (SMILES)
5 | 1 to 10 | CC(=O)NCCCNC(=O)c1nc(-c2cccc(C(=O)NCc3ccccc3)c2)cnc1N [Example 647, N-[3-(acetylamino)propyl]-3-amino-6-(3-{[(phenylmethyl)amino]carbonyl}phenyl)pyrazine-2-carboxamide]
6 | < 0.05 | Nc1ncc(-c2cccc(CN[C@H]3CCc4ccccc43)c2)nc1-c1nc(-c2cccnc2)n[nH]1 [Example 596, 5-(3-{[(1S)-2,3-dihydro-1H-inden-1-ylamino]methyl}phenyl)-3-(3-pyridin-3-yl-1H-1,2,4-triazol-5-yl)pyrazin-2-amine]
7 | 1 to 10 | Nc1ncc(-c2cccc(CN[C@H]3CCc4ccccc43)c2)nc1C(=O)NCCN1CCOCC1 [Example 542, 3-amino-6-(3-{[(1S)-2,3-dihydro-1H-inden-1-ylamino]methyl}phenyl)-N-(2-morpholin-4-ylethyl)pyrazine-2-carboxamide]
8 | 1 to 10 | Nc1ncc(-c2cccc(CO)c2)nc1-c1nnc[nH]1 [Example 535, {3-[5-amino-6-(4H-1,2,4-triazol-3-yl)pyrazin-2-yl]phenyl}methanol]
9 | 0.05 to 1 | NC(=O)c1nc(-c2cccc(CN[C@H]3CCc4ccccc43)c2)cnc1N [Example 530, 3-amino-6-(3-{[(1S)-2,3-dihydro-1H-inden-1-ylamino]methyl}phenyl)pyrazine-2-carboxamide]
10 | 0.05 to 1 | CCN1CC[C@H](NC(=O)c2nc(-c3cccc(C(=O)N[C@H]4CCc5ccccc54)c3)cnc2N)C1 [Example 706, 3-amino-6-(3-{[(1S)-2,3-dihydro-1H-inden-1-ylamino]carbonyl}phenyl)-N-[(3S)-1-ethylpyrrolidin-3-yl]pyrazine-2-carboxamide]
11 | 0.05 to 1 | CNC(=O)c1nc(-c2cccc(CNc3ccc4ccccc4c3)c2)cnc1N [Example 452, 3-amino-N-methyl-6-{3-[(naphthalen-2-ylamino)methyl]phenyl}pyrazine-2-carboxamide]
12 | 1 to 10 | C/C(=N\Nc1ccc(C(=O)O)cc1)c1nc(-c2cccc(C(=O)NCc3ccccc3)c2)cnc1N [Example 627, 4-((2E)-2-{1-[3-amino-6-(3-{[(phenylmethyl)amino]carbonyl}phenyl)pyrazin-2-yl]ethylidene}hydrazino)benzoic acid]
13 | 0.05 to 1 | CNC(=O)c1nc(-c2cccc(C(=O)NCc3ccccc3)c2)cnc1N [Example 441, 3-Amino-6-(3-benzylcarbamoyl-phenyl)-pyrazine-2-carboxylic acid methylamide]
14 | 0.05 to 1 | Nc1ncc(-c2cccc(S(=O)(=O)N[C@H]3CCc4ccccc43)c2)nc1C(=O)NC1CCCNC1 (stereo partly drawn) [Example 803, 3-amino-6-(3-{[(1S)-2,3-dihydro-1H-inden-1-ylamino]sulfonyl}phenyl)-N-piperidin-3-ylpyrazine-2-carboxamide]
15 | 1 to 10 | CC(C)(C)OC(=O)N1CC[C@H](NC(=O)c2nc(-c3cccc(C(=O)NCc4c(F)cccc4Cl)c3)cnc2N)C1 [Example 740, 1,1-dimethylethyl (3S)-3-[({3-amino-6-[3-({[(2-chloro-6-fluorophenyl)methyl]amino}carbonyl)phenyl]pyrazin-2-yl}carbonyl)amino]pyrrolidine-1-carboxylate]
16 | 0.05 to 1 | CNC(=O)c1nc(-c2cccc(CNC3CCc4cc(F)ccc43)c2)cnc1N (centres unmarked) [Example 464, 3-amino-6-(3-{[(5-fluoro-2,3-dihydro-1H-inden-1-yl)amino]methyl}phenyl)-N-methylpyrazine-2-carboxamide]
17 | ≥ 10 | Nc1ncc(-c2cccc(C(=O)NCc3ccccc3)c2)nc1C(=O)NCCNS(=O)(=O)c1ccccn1 [Example 665, 3-amino-6-(3-{[(phenylmethyl)amino]carbonyl}phenyl)-N-{2-[(pyridin-2-ylsulfonyl)amino]ethyl}pyrazine-2-carboxamide]
18 | ≥ 10 | CC(C)(C)OC(=O)N1CCC(CNC(=O)c2nc(-c3cccc(C(=O)NCc4ccccc4)c3)cnc2N)CC1 [Example 563, 1,1-dimethylethyl 4-[({[3-amino-6-(3-{[(phenylmethyl)amino]carbonyl}phenyl)pyrazin-2-yl]carbonyl}amino)methyl]piperidine-1-carboxylate]
19 | 0.05 to 1 | Nc1ncc(-c2cccc(C(=O)N[C@H]3CCc4ccccc43)c2)nc1-c1nc(C2CCCNC2)n(-c2ccccc2)n1 (stereo partly drawn) [Example 773, 3-[5-amino-6-(1-phenyl-5-piperidin-3-yl-1H-1,2,4-triazol-3-yl)pyrazin-2-yl]-N-[(1S)-2,3-dihydro-1H-inden-1-yl]benzamide]
20 | 1 to 10 | CSc1ccc(CNC(=O)c2cccc(-c3cnc(N)c(C(=O)N[C@H]4CCN(C(=O)OC(C)(C)C)C4)n3)c2)cc1 [Example 741, 1,1-dimethylethyl (3S)-3-{[(3-amino-6-{3-[({[4-(methylthio)phenyl]methyl}amino)carbonyl]phenyl}pyrazin-2-yl)carbonyl]amino}pyrrolidine-1-carboxylate]
21 | 0.05 to 1 | COc1cccc(-c2n[nH]c(-c3nc(-c4cccc(CN[C@H]5CCc6ccccc65)c4)cnc3N)n2)c1 [Example 584, 5-(3-{[(1S)-2,3-dihydro-1H-inden-1-ylamino]methyl}phenyl)-3-{3-[3-(methyloxy)phenyl]-1H-1,2,4-triazol-5-yl}pyrazin-2-amine]
22 | 1 to 10 | NC(=O)c1nc(-c2cccc(S(=O)(=O)N[C@H]3CCc4ccccc43)c2)cnc1N [Example 802, 3-amino-6-(3-{[(1S)-2,3-dihydro-1H-inden-1-ylamino]sulfonyl}phenyl)pyrazine-2-carboxamide]
23 | 1 to 10 | N=C(NN1CCOCC1)c1nc(-c2cccc(C(=O)NCc3ccccc3)c2)cnc1N [Example 620, 3-{5-amino-6-[imino(morpholin-4-ylamino)methyl]pyrazin-2-yl}-N-(phenylmethyl)benzamide]

Same assay, conditions: read-out: Chk1 IC50

Row | IC50 [µM] | Structure (SMILES)
24 | 0.05 to 1 | CNC(=O)c1nc(-c2cccc(C(=O)N[C@@H]3C[C@H]3c3ccccc3)c2)cnc1N [Example 148, 3-amino-N-methyl-6-[3-({[(1R,2S)-2-phenylcyclopropyl]amino}carbonyl)phenyl]pyrazine-2-carboxamide]
25 | < 0.05 | CNC(=O)c1nc(-c2cccc(C(=O)NNc3ccccc3)c2)cnc1N [Example 328, 3-amino-N-methyl-6-{3-[(2-phenylhydrazino)carbonyl]phenyl}pyrazine-2-carboxamide]
26 | 0.05 to 1 | CNC(=O)c1nc(-c2cccc(C(=O)NCc3ccc(F)c(F)c3F)c2)cnc1N [Example 281, 3-amino-N-methyl-6-[3-({[(2,3,4-trifluorophenyl)methyl]amino}carbonyl)phenyl]pyrazine-2-carboxamide]
27 | 0.05 to 1 | CNC(=O)c1nc(-c2cccc(NC(=O)Cc3ccc4c(c3)OCO4)c2)cnc1N [Example 369, 3-amino-6-{3-[(1,3-benzodioxol-5-ylacetyl)amino]phenyl}-N-methylpyrazine-2-carboxamide]
28 | 0.05 to 1 | CNC(=O)c1nc(-c2cccc(C(=O)NCc3cccc(C)c3)c2)cnc1N [Example 259, 3-amino-N-methyl-6-[3-({[(3-methylphenyl)methyl]amino}carbonyl)phenyl]pyrazine-2-carboxamide]
29 | 0.05 to 1 | CNC(=O)c1nc(-c2cccc(C(=O)N[C@@H](C)c3ccccc3)c2)cnc1N [Example 145, 3-amino-N-methyl-6-[3-({[(1S)-1-phenylethyl]amino}carbonyl)phenyl]pyrazine-2-carboxamide]
30 | 1 to 10 | CNC(=O)c1nc(-c2ccncc2)cnc1N [Example 269, 3-amino-N-methyl-6-pyridin-4-ylpyrazine-2-carboxamide]
31 | 0.05 to 1 | CNC(=O)c1nc(-c2cccc(CNC(=O)Cc3ccccc3)c2)cnc1N [Example 330, 3-amino-N-methyl-6-(3-{[(phenylacetyl)amino]methyl}phenyl)pyrazine-2-carboxamide]
32 | 0.05 to 1 | CNC(=O)c1nc(-c2cccc(CSCc3ccccc3)c2)cnc1N [Example 312, 3-amino-N-methyl-6-(3-{[(phenylmethyl)thio]methyl}phenyl)pyrazine-2-carboxamide]
